Measurements published in patent US7196094B2, “Farnesyl transferase inhibiting 6-heterocyclylmethyl quinoline and quinazoline derivatives” (Janssen Pharmaceutica, N.V., priority 2000, dated 2007).

For `Cn1cncc1C(O)(c1ccc2ncccc2c1)c1ccc2c(c1)c(-c1cccc(Cl)c1)nc(=O)n2C` (stereo not drawn) [Compound 7, 4-(3-chlorophenyl)-6-[hydroxy(1-methyl-1H-imidazol-5-yl)-6-quinolinylmethyl]-1-methyl-2(1H)-quinazolinone], the melting point was 192 °C.
With `Cn1cncc1C(O)(c1ccoc1)c1ccc2c(c1)c(-c1cccc(Cl)c1)cc1nnnn12` (stereo not drawn) [Compound 3, 5-(3-chlorophenyl)-α-(3-furanyl)-α-(1-methyl-1H-imidazol-5-yl)-tetrazolo[1,5-a]quinoline-7-methanol] the melting point was 188 °C.
In the case of `Cn1cncc1C(c1ccc2c(c1)c(-c1cccc(Cl)c1)nc1nnnn12)n1ccnc1-c1ccccc1` (stereo not drawn) [Compound 10, 5-(3-chlorophenyl)-7-[(1-methyl-1H-imidazol-5-yl)(2-phenyl-1H-imidazol-1-yl)methyl]-tetrazolo[1,5-a]quinazoline], the melting point is reported as 150 °C.
